Laboratory results as given in patent US9708314B2, “Heterocyclic amide compound” (NISSAN CHEMICAL INDUSTRIES, LTD., priority 2013, dated 2017).

Assays:
Type in all cases: in vivo
[1] = tested on: Cyperus difformis; assay: Test Example 3: herbicidal effect by application to foliage (Wagner pot, water depth 0.1-0.5 cm); details: Nineteenth Table; application to foliage; application herbicide amount 224 g/ha
Source text: (§1) 5 Herbicidal ratio of 90% or more (almost completely withered) 4 Herbicidal ratio of 70% or more and less than 90% 3 Herbicidal ratio of 40% or more and less than 70% 2 Herbicidal ratio of 20% or more and less than 40% 1 Herbicidal ratio of 5% or more and less than 20% 0 Herbicidal ratio of 5% or less (almost no effect) [Test Example 3] Herbicidal Effect Test by Application to Foliage After alluvial soil was placed into 1/10000 are of Wagner pot, water was poured and mixed to form a condition having a water depth of 0.1 cm to 0.5 cm. Seeds of Echinochloa crus-galli var. crus-galli, Leptochloa chinensis, Cyperus difformis, and Oryza sativa were sowed and the pot was placed in the greenhouse of 25° C. to 30° C. to grow the plants. After the plants were grown for 14 days, the emulsion agent containing the compound of the present invention prepared in accordance with Formulation Example 2 was diluted with water so as to be a predetermined herbicide amount and the diluted compound was uniformly applied to a stem and leaf part with a small-size spray. Three weeks after the herbicide application, effects on each plant were investigated in accordance with the criteria of Test Example 1. A: Echinochloa oryzicola Vasing., B: Scirpus juncoides, C: Monochoria vaginalis, D: Leptochloa chinensis, E: Cyperus difformis, F: Digitaria ciliaris, G: Setaria viridis, H: Echinochloa crus-galli var. crus-galli, I: Avena fatua, J: Alopecurus myosuroides, K: Lolium multiflorum Lam., L: Apera spica-venti., M: Abutilon theophrasti, N: Amaranthus retroflexus, O: Chenopodium album, P: Stellaria media, Q: Galium spurium, R: Veronica persica, a: transplanted Oryza sativa, b: directly sowed Oryza sativa, c: Zea mays, d: Glycine max, e: Triticum aestivum, f: Beta vulgaris ssp. vulgaris, and g: Brassica campestris L. The application herbicide amount (g/ha) means an amount that a concentration is adjusted so that, when an application amount is converted into per hectare (1 ha), the herbicide is applied by the number of grams (g) of the described value.

[2] = tested on: Echinochloa crus-galli var. crus-galli; assay: as above; details: Nineteenth Table; application to foliage; application herbicide amount 224 g/ha
Source text: as §1

[3] = tested on: Leptochloa chinensis; assay: as above; details: Nineteenth Table; application to foliage; application herbicide amount 224 g/ha
Source text: as §1

[4] = tested on: directly sowed Oryza sativa; assay: Test Example 3: effect on crop by application to foliage (Wagner pot, water depth 0.1-0.5 cm); details: Nineteenth Table; application to foliage; application herbicide amount 224 g/ha
Source text: as §1

[5] = tested on: Abutilon theophrasti; assay: Test Example 4: herbicidal effect by application to foliage (diluvial soil, plastic box)
Source text: (§2) 5 Herbicidal ratio of 90% or more (almost completely withered) 4 Herbicidal ratio of 70% or more and less than 90% 3 Herbicidal ratio of 40% or more and less than 70% 2 Herbicidal ratio of 20% or more and less than 40% 1 Herbicidal ratio of 5% or more and less than 20% 0 Herbicidal ratio of 5% or less (almost no effect) [Test Example 4] Herbicidal Effect Test by Application to Foliage Sterilized diluvial soil was placed in a plastic box having a length of 21 cm, a width of 13 cm, and a depth of 7 cm. Each of the seeds of Digitaria ciliaris, Setaria viridis, Echinochloa crus-galli var. crus-galli, Avena fatua, Alopecurus myosuroides, Lolium multiflorum Lam., Apera spica-venti., Abutilon theophrasti, Amaranthus retroflexus, Chenopodium album, Stellaria media, Galium spurium, Veronica persica, Zea mays, Glycine max, Oryza sativa, Triticum aestivum, Beta vulgaris ssp. vulgaris, and Brassica campestris L. was sowed in a spot-like manner and was covered with the soil of about 1.5 cm thick. Thereafter, the plants were grown in the greenhouse of 25° C. to 30° C. After the plants were grown for 14 days, the emulsion agent containing the compound of the present invention prepared in accordance with Formulation Example 2 was diluted with water so as to be a predetermined herbicide amount and the diluted compound was uniformly applied to a stem and leaf part with a small-size spray. Three weeks after the herbicide application, effects on each plant were investigated in accordance with the criteria of Test Example 1. A: Echinochloa oryzicola Vasing., B: Scirpus juncoides, C: Monochoria vaginalis, D: Leptochloa chinensis, E: Cyperus difformis, F: Digitaria ciliaris, G: Setaria viridis, H: Echinochloa crus-galli var. crus-galli, I: Avena fatua, J: Alopecurus myosuroides, K: Lolium multiflorum Lam., L: Apera spica-venti., M: Abutilon theophrasti, N: Amaranthus retroflexus, O: Chenopodium album, P: Stellaria media, Q: Galium spurium, R: Veronica persica, a: transplanted Oryza sativa, b: directly sowed Oryza sativa, c: Zea mays, d: Glycine max, e: Triticum aestivum, f: Beta vulgaris ssp. vulgaris, and g: Brassica campestris L. The application herbicide amount (g/ha) means an amount that a concentration is adjusted so that, when an application amount is converted into per hectare (1 ha), the herbicide is applied by the number of grams (g) of the described value.

[6] = tested on: Alopecurus myosuroides; assay: as above
Source text: as §2

[7] = tested on: Apera spica-venti.; assay: as above
Source text: as §2

[8] = tested on: Avena fatua; assay: as above
Source text: as §2

[9] = tested on: Chenopodium album; assay: as above
Source text: as §2

[10] = tested on: Digitaria ciliaris; assay: as above
Source text: as §2

[11] = tested on: Echinochloa crus-galli var. crus-galli; assay: as above
Source text: as §2

[12] = tested on: Galium spurium; assay: as above
Source text: as §2

[13] = tested on: Lolium multiflorum Lam.; assay: as above
Source text: as §2

[14] = tested on: Setaria viridis; assay: as above
Source text: as §2

[15] = tested on: Veronica persica; assay: as above
Source text: as §2

[16] = tested on: Beta vulgaris ssp. vulgaris; assay: Test Example 4: effect on crop by application to foliage (diluvial soil, plastic box)
Source text: as §2

[17] = tested on: Brassica campestris L.; assay: as above
Source text: as §2

[18] = tested on: Glycine max; assay: as above
Source text: as §2

[19] = tested on: Triticum aestivum; assay: as above
Source text: as §2

[20] = tested on: Zea mays; assay: as above
Source text: as §2

[21] = tested on: directly sowed Oryza sativa; assay: as above
Source text: as §2

[22] = tested on: Amaranthus retroflexus; assay: Test Example 4: herbicidal effect by application to foliage (diluvial soil, plastic box); details: application to foliage, application herbicide amount 320 g/ha
Source text: as §2

[23] = tested on: Stellaria media; assay: as above; details: application to foliage, application herbicide amount 320 g/ha
Source text: as §2

[24] = Application herbicide amount 224 g/ha
[25] = Application herbicide amount 224 g/ha, effect on crop
[26] = application to foliage, application herbicide amount 320 g/ha

Cc1nnc(NC(=O)c2c(C)cc(C(F)(F)F)n3c(C(C)C)nnc23)o1 [1-089]
E (herbicidal effect grade) [1]: 2 (Herbicidal ratio of 20% or more and less than 40%) | H (herbicidal effect grade) [2]: 3 (Herbicidal ratio of 40% or more and less than 70%) | D (herbicidal effect grade) [3]: 3 (Herbicidal ratio of 40% or more and less than 70%) | b (effect on crop grade) [4]: 0 (Herbicidal ratio of 5% or less (almost no effect)) | M [5, 24]: 2 (Herbicidal ratio of 20% or more and less than 40%) | J [6, 24]: 0 (Herbicidal ratio of 5% or less (almost no effect)) | L [7, 24]: 0 (Herbicidal ratio of 5% or less (almost no effect)) | I [8, 24]: 2 (Herbicidal ratio of 20% or more and less than 40%) | O [9, 24]: 4 (Herbicidal ratio of 70% or more and less than 90%) | F [10, 24]: 1 (Herbicidal ratio of 5% or more and less than 20%) | H [11, 24]: 3 (Herbicidal ratio of 40% or more and less than 70%) | Q [12, 24]: 0 (Herbicidal ratio of 5% or less (almost no effect)) | K [13, 24]: 0 (Herbicidal ratio of 5% or less (almost no effect)) | G [14, 24]: 0 (Herbicidal ratio of 5% or less (almost no effect)) | R [15, 24]: 3 (Herbicidal ratio of 40% or more and less than 70%) | f [16, 25]: 3 (Herbicidal ratio of 40% or more and less than 70%) | g [17, 25]: 1 (Herbicidal ratio of 5% or more and less than 20%) | c [18, 25]: 0 (Herbicidal ratio of 5% or less (almost no effect)) | e [19, 25]: 0 (Herbicidal ratio of 5% or less (almost no effect)) | b [20, 25]: 0 (Herbicidal ratio of 5% or less (almost no effect)) | d [21, 25]: 1 (Herbicidal ratio of 5% or more and less than 20%)

CC#Cc1nnc2c(C(=O)Nc3nnco3)ccc(C(F)(F)F)n12 [1-160]
M: herbicidal effect on Abutilon theophrasti [5, 26]: 3 (Herbicidal ratio of 40% or more and less than 70%) | J: herbicidal effect on Alopecurus myosuroides [6, 26]: 0 (Herbicidal ratio of 5% or less (almost no effect)) | N: herbicidal effect on Amaranthus retroflexus [22]: 1 (Herbicidal ratio of 5% or more and less than 20%) | L: herbicidal effect on Apera spica-venti. [7, 26]: 0 (Herbicidal ratio of 5% or less (almost no effect)) | I: herbicidal effect on Avena fatua [8, 26]: 0 (Herbicidal ratio of 5% or less (almost no effect)) | O: herbicidal effect on Chenopodium album [9, 26]: 4 (Herbicidal ratio of 70% or more and less than 90%) | F: herbicidal effect on Digitaria ciliaris [10, 26]: 1 (Herbicidal ratio of 5% or more and less than 20%) | H: herbicidal effect on Echinochloa crus-galli var. crus-galli [11, 26]: 2 (Herbicidal ratio of 20% or more and less than 40%) | Q: herbicidal effect on Galium spurium [12, 26]: 0 (Herbicidal ratio of 5% or less (almost no effect)) | K: herbicidal effect on Lolium multiflorum Lam. [13, 26]: 0 (Herbicidal ratio of 5% or less (almost no effect)) | G: herbicidal effect on Setaria viridis [14, 26]: 0 (Herbicidal ratio of 5% or less (almost no effect)) | P: herbicidal effect on Stellaria media [23]: 3 (Herbicidal ratio of 40% or more and less than 70%) | R: herbicidal effect on Veronica persica [15, 26]: 1 (Herbicidal ratio of 5% or more and less than 20%) | f: effect on crop, Beta vulgaris ssp. vulgaris [16, 26]: 2 (Herbicidal ratio of 20% or more and less than 40%) | g: effect on crop, Brassica campestris L. [17, 26]: 0 (Herbicidal ratio of 5% or less (almost no effect)) | d: effect on crop, Glycine max [18, 26]: 2 (Herbicidal ratio of 20% or more and less than 40%) | e: effect on crop, Triticum aestivum [19, 26]: 0 (Herbicidal ratio of 5% or less (almost no effect)) | c: effect on crop, Zea mays [20, 26]: 0 (Herbicidal ratio of 5% or less (almost no effect)) | b: effect on crop, directly sowed Oryza sativa [21, 26]: 0 (Herbicidal ratio of 5% or less (almost no effect))
